In patent US20220401564A1 (DANA-FARBER CANCER INSTITUTE, INC., priority 2019, published 2022):

What was measured:
HDAC3 = HDAC3 (Homo sapiens, UniProt O15379); assay: Change in cellular protein abundance (TMT proteomics) in Kelly cells; type: cell-based; parameters: relative change in relative protein abundance with treatment of Kelly cells; endogenous in cells; host or cells: Kelly cells; conditions: scatter plots FIG. 1 and FIG. 3
Description: Lysis buffer (8 M Urea, 50 mM NaCl, 50 mM 4-(2hydroxyethyl)-1-piperazineethanesulfonic acid (EPPS) pH 8.5, protease and phosphatase inhibitors from Roche®) were added to the cell pellets and homogenized by 20 passes through a 21 gauge (1.25 in. long) needle to achieve a cell lysate with a protein concentration between 1-4 mg mL-1. A micro-BCA assay (Pierce™) was used to determine the final protein concentration in the cell lysate. 200 μg of protein for each sample were reduced and alkylated as described in Donovan et al., Elife 7:e38430 (2018).
Proteins were precipitated using methanol/chloroform. Four volumes of methanol were added to the cell lysate, followed by one volume of chloroform, and finally three volumes of water. The mixture was vortexed and centrifuged to separate the chloroform phase from the aqueous phase. The precipitated protein was washed with three volumes of methanol, centrifuged and the resulting washed precipitated protein was allowed to air dry. The precipitated protein was resuspended in 4 M Urea, 50 mM HEPES pH 7.4, followed by dilution to 1 M urea with the addition of 200 mM EPPS, pH 8. Proteins were first digested with LysC (1:50; enzyme:protein) for 12 hours at room temperature. The LysC digestion was diluted to 0.5 M Urea with 200 mM EPPS pH 8 followed by digestion with trypsin (1:50; enzyme:protein) for 6 hours at 37° C. Tandem mass tag (TMT) reagents (Thermo Fisher Scientific) were dissolved in anhydrous acetonitrile (ACN) according to manufacturer's instructions.
Anhydrous ACN was added to each peptide sample to a final concentration of 30% v/v, and labeling was induced with the addition of TMT reagent to each sample at a ratio of 1:4 peptide:TMT label. The 10-plex labeling reactions were performed for 1.5 hours at room temperature and the reaction quenched by the addition of hydroxylamine to a final concentration of 0.3% for 15 minutes at room temperature. The sample channels were combined at a 1:1:1:1:1:1:1:1:1:1:1 ratio, desalted using Cis solid phase extraction cartridges (Waters®) and analyzed by LC-MS for channel ratio comparison. Samples were then combined using the adjusted volumes determined in the channel ratio analysis and dried down in a speed vacuum. The combined sample was then resuspended in 1% formic acid, and acidified (pH 2-3) before being subjected to desalting with C18 SPE (Sep-Pak®, Waters®). Samples were then offline fractionated into 96 fractions by high pH reverse-phase HPLC (Agilent® LC1260) through an aeris peptide xb-c18 column (Phenomenex®) with mobile phase A containing 5% acetonitrile and 10 mM NH4HCO3 in LC-MS grade H2O, and mobile phase B containing 90% acetonitrile and 10 mM NH4HCO3 in LC-MS grade H2O (both pH 8.0). The 96 resulting fractions were then pooled in a non-continuous manner into 24 fractions and these fractions were used for subsequent mass spectrometry analysis.
Data were collected using an Orbitrap Fusion™ Lumos™ mass spectrometer (Thermo Fisher Scientific, San Jose, Calif., USA) coupled with a Proxeon EASY-nLC™ 1200 LC pump (Thermo Fisher Scientific). Peptides were separated on an EasySpray™ ES803 75 μm inner diameter microcapillary column (ThermoFisher Scientific).
Each analysis used an MS3-based TMT method as described previously. The data were acquired using a mass range of m z 340-1350, resolution 120,000, automatic gain control (AGC) target 1×10^6, maximum injection time 100 ms, dynamic exclusion of 120 seconds for the peptide measurements in the Orbitrap Fusion™ Lumos™ mass spectrometer. Data dependent MS2 spectra were acquired in the ion trap with a normalized collision energy (NCE) set at 55%, AGC target set to 1.5×10^5 and a maximum injection time of 150 ms. […]

VHL = molecular target: T1, VHL (Homo sapiens, UniProt P40337); assay: Cellular VHL engagement assay (BRD4BD2-GFP / mCherry reporter cells); type: cell-based; conditions: with 250 nM AT1, 5 h
T1 construct: Cells stably expressing the BRD4BD2-GFP with mCherry reporter (40) were seeded; endogenous in cells
T1 sequence (P40337 whole entry, species assumed): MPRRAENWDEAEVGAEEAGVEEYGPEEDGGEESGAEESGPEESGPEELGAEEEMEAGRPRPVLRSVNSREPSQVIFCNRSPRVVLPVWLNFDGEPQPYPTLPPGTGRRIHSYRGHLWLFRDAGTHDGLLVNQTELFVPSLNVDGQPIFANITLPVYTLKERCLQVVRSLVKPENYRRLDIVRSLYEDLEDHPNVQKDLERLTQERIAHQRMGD
Description: Cells stably expressing the BRD4BD2-GFP with mCherry reporter (40) were seeded at 30-50% confluency in 384-well plates with 50 μL per well of FluoroBrite™ DMEM media (Thermo Fisher Scientific, A18967) supplemented with 10% FBS a day before compound treatment. Compounds and 250 nM AT1((2S,4R)-1-(2R)-2-Acetamido-3-[[6-[2-[(6S)-4-(4-chlorophenyl)-2,3,9-trimethyl-6H-thieno[3,2-f][1,2,4]triazolo[4,3-a][1,4]diazepin-6-yl]acetamido]hexyl]thio]-3-methylbutanoyl]-4-hydroxy-N-[4-(4-methylthiazol-5-yl)benzyl)pyrrolidinine-2-carboxamide) were dispensed using a D300e Digital Dispenser (HP), normalized to 0.5% DMSO, and incubated with the cells for 5 h. The assay plate was imaged immediately using an Acumen® High Content Imager (TTP Labtech) with 488 nm and 561 nm lasers in a […] grid per well format. The resulting images were analyzed using CellProfiler™.
A series of image analysis steps (an ‘image analysis pipeline’) was constructed. First, the red and green channels were aligned and cropped to target the middle of each well (to avoid analysis of the heavily clumped cells at the edges). A background illumination function was calculated for both red and green channels of each well individually and subtracted to correct for illumination variations across the 384-well plate from various sources of error. An additional step was then applied to the green channel to suppress the analysis of large auto fluorescent artifacts and enhance the analysis of cell specific fluorescence by way of selecting for objects under a given size (30 A.U.) and with a given shape (speckles). mCherry-positive cells were then identified in the red channel by filtering for objects 8-60 pixels in diameter and by using intensity to distinguish between clumped objects. The green channel was then segmented into GFP positive and negative areas and objects were labeled as GFP positive if at least 40% of it overlapped with a GFP positive area. The fraction of GFP-positive cells/mCherry-positive cells in each well was then calculated, and the green and red images were rescaled for visualization.

HDAC3, sequence (O15379 whole entry): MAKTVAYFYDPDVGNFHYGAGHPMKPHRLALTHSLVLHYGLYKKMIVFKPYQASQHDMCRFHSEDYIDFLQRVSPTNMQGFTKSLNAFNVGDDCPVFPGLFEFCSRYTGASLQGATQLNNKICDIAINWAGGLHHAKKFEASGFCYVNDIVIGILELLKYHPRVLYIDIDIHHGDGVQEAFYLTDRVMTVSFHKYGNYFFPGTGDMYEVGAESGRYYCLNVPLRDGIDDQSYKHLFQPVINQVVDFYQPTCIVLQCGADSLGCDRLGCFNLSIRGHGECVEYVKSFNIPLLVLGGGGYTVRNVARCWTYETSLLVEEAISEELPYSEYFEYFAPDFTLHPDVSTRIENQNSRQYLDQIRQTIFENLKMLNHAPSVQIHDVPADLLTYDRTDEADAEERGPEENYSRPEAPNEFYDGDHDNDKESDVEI

Structure (SMILES)	HDAC3 protein levels, relative protein abundance compared to DMSO control (HDAC3)	IC50 (VHL)
Cc1ncsc1-c1ccc([C@H](C)NC(=O)[C@@H]2C[C@@H](O)CN2C(=O)[C@@H](NC(=O)CCOCCOCCOCCN(CCc2c[nH]c3ccccc23)Cc2ccc(/C=C/C(=O)NO)cc2)C(C)(C)C)cc1 [Compound 3, (2S,4R)-1-((S)-17-(tert-butyl)-3-(4-((E)-3-(hydroxyamino)-3-oxoprop-1-en-1-yl)benzyl)-1-(1H-indol-3-yl)-15-oxo-6,9,12-trioxa-3,16-diazaoctadecan-18-oyl)-4-hydroxy-N—((S)-1-(4-(4-methylthiazol-5-yl)phenyl)ethyl)pyrrolidine-2-carboxamide]	significant and selective reduction	15.1 µM
Cc1ncsc1-c1ccc([C@H](C)NC(=O)[C@@H]2C[C@@H](O)CN2C(=O)[C@@H](NC(=O)CCOCCOCCOCCOCCN(CCc2c[nH]c3ccccc23)Cc2ccc(/C=C/C(=O)NO)cc2)C(C)(C)C)cc1 [Compound 4]	–	22.9 µM
Cc1ncsc1-c1ccc([C@H](C)NC(=O)[C@@H]2C[C@@H](O)CN2C(=O)[C@@H](NC(=O)CCOCCOCCOCCOCCOCCN(CCc2c[nH]c3ccccc23)Cc2ccc(/C=C/C(=O)NO)cc2)C(C)(C)C)cc1 [Compound 5, (2S,4R)-1-((S)-23-(tert-butyl)-3-(4-((E)-3-(hydroxyamino)-3-oxoprop-1-en-1-yl)benzyl)-1-(1H-indol-3-yl)-21-oxo-6,9,12,15,18-pentaoxa-3,22-diazatetracosan-24-oyl)-4-hydroxy-N—((S)-1-(4-(4-methylthiazol-5-yl)phenyl)ethyl)pyrrolidine-2-carboxamide]	significant and selective reduction	19.3 µM
Cc1ncsc1-c1ccc(CNC(=O)[C@@H]2C[C@@H](O)CN2C(=O)[C@@H](NC(=O)C2(F)CC2)C(C)(C)C)c(OCCOCCOCCN(CCc2c[nH]c3ccccc23)Cc2ccc(/C=C/C(=O)NO)cc2)c1 [Compound 8, (2S,4R)—N-(2-(2-(2-(2-((2-(1H-indol-3-yl)ethyl)(4-((E)-3-(hydroxyamino)-3-oxoprop-1-en-1-yl)benzyl)amino)ethoxy)ethoxy)ethoxy)-4-(4-methylthiazol-5-yl)benzyl)-1-((S)-2-(1-fluorocyclopropane-1-carboxamido)-3,3-dimethylbutanoyl)-4-hydroxypyrrolidine-2-carboxamide]	–	10.1 µM
Cc1ncsc1-c1ccc([C@H](C)NC(=O)[C@@H]2C[C@@H](O)CN2C(=O)[C@@H](NC(=O)CCOCCOCCN(CCc2c[nH]c3ccccc23)Cc2ccc(/C=C/C(=O)Nc3ccccc3N)cc2)C(C)(C)C)cc1 [Compound 10]	significant and selective reduction	9 µM
Cc1ncsc1-c1ccc([C@H](C)NC(=O)[C@@H]2C[C@@H](O)CN2C(=O)[C@@H](NC(=O)CCOCCOCCOCCN(CCc2c[nH]c3ccccc23)Cc2ccc(/C=C/C(=O)Nc3ccccc3N)cc2)C(C)(C)C)cc1 [Compound 11, (2S,4R)-1-((S)-3-(4-((E)-3-((2-aminophenyl)amino)-3-oxoprop-1-en-1-yl)benzyl)-17-(tert-butyl)-1-(1H-indol-3-yl)-15-oxo-6,9,12-trioxa-3,16-diazaoctadecan-18-oyl)-4-hydroxy-N—((S)-1-(4-(4-methylthiazol-5-yl)phenyl)ethyl)pyrrolidine-2-carboxamide]	significant and selective reduction	–
Cc1ncsc1-c1ccc([C@H](C)NC(=O)[C@@H]2C[C@@H](O)CN2C(=O)[C@@H](NC(=O)CCOCCOCCOCCOCCN(CCc2c[nH]c3ccccc23)Cc2ccc(/C=C/C(=O)Nc3ccccc3N)cc2)C(C)(C)C)cc1 [Compound 12, (2S,4R)-1-((S)-3-(4-((E)-3-((2-aminophenyl)amino)-3-oxoprop-1-en-1-yl)benzyl)-20-(tert-butyl)-1-(1H-indol-3-yl)-18-oxo-6,9,12,15-tetraoxa-3,19-diazahenicosan-21-oyl)-4-hydroxy-N—((S)-1-(4-(4-methylthiazol-5-yl)phenyl)ethyl)pyrrolidine-2-carboxamide]	significant and selective reduction	–
